Assay results reported in paper PMC6017322, “Triterpene Acids from Frankincense and Semi-Synthetic Derivatives That Inhibit 5-Lipoxygenase and Cathepsin G” (Molecules : A Journal of Synthetic Chemistry and Natural …, 2018).

Legend:
5-LO [1] = molecular target: T1, 5-LO (Homo sapiens, UniProt P09917); assay: 5-LO activity in a cell-free assay (isolated human recombinant 5-LO, 20 µM arachidonic acid); type: biochemical; design: made in house; host or cells: Escherichia coli BL21 (pT3-5-LO plasmid); conditions: for IC50: isolated human 5-LO; for IC50 / remaining activity at 10 µM / 5-LO Activity [% Control] cell-free: 20 µM arachidonic acid; for remaining activity at 10 µM / 5-LO Activity [% Control] cell-free: residual activity at 10 µM, isolated 5-LO, mean ± SEM, 3–4 experiments; for remaining activity at 10 µM: read-out: 5-LO Activity [% Control] cell-free
T1 sequence (P09917 1-674): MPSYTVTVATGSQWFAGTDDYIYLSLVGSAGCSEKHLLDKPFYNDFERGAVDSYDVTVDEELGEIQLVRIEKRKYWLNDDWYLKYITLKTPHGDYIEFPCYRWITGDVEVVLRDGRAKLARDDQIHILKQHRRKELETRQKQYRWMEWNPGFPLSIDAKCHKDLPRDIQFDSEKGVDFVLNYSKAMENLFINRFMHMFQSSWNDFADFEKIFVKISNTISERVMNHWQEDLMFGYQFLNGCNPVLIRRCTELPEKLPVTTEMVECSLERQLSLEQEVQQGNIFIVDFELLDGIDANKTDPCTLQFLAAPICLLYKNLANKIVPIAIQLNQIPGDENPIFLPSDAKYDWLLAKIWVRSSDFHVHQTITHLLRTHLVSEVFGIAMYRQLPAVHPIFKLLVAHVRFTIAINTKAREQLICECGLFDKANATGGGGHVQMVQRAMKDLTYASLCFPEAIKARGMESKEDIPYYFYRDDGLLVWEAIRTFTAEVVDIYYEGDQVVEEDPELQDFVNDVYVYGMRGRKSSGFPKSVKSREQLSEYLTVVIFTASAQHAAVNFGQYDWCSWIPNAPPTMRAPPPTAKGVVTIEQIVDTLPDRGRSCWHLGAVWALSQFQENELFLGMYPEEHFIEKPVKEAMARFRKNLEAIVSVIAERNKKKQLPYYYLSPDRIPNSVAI
Description: Human recombinant 5-LO was expressed in Eschericha coli BL21 transformed with pT3-5-LO plasmid at 30 °C overnight, as described elsewhere. Cells were lysed in lysis buffer containing triethanolamine (50 mM, pH 8.0), EDTA (5 mM), phenylmethanesulfonyl fluoride (1 mM), soybean trypsin inhibitor (60 µg/mL), dithiothreitol (2 mM), and lysozyme (1 mg/mL), and homogenized by sonification (3 × 15 s). 5-LO was then purified from 40,000× g supernatant (20 min, 4 °C) using an ATP-agarose column (Sigma-Aldrich, Deisenhofen, Germany), diluted with PBS buffer containing 1 mM EDTA, and immediately used for 5-LO activity assays.
To determine 5-LO activity, aliquots of purified 5-LO (0.5 µg 5-LO in 1 mL PBS plus 1 mM EDTA) were pre-incubated with the test compounds or vehicle (0.1% dimethyl sulfoxide, DMSO) on ice for 15 min, pre-warmed for 30 s at 37 °C in a water bath, and then stimulated with 20 µM AA and CaCl2 2 mM for 10 min at 37 °C. The reaction was stopped with one volume of ice-cold methanol and 5-LO products (including all-trans-isomers of LTB4 and 5-hydroperoxyeicosatetraenoic acid (5-HpETE), as well as its corresponding alcohol 5-hydroxyeicosatetraenoic acid (5-HETE)) were analyzed by reversed phase (RP)-HPLC (Elite LaChrom, VWR, Radnor, PA, USA) as previously described. In brief, acidified PBS and 200 ng of internal PGB1 standard were added and solid phase extraction using C18 RP-columns (100 mg, UCT, Bristol, PA, USA) was performed. After elution with methanol, samples were analyzed by RP-HPLC using a C-18 Radial-PAK column (Waters, Eschborn, Germany).

cathepsin G = molecular target: T2, cathepsin G (Homo sapiens, UniProt P08311); assay: Cathepsin G activity in a cell-free assay (Suc-AAPF-pNA substrate); type: biochemical; conditions: for remaining activity at 10 µM: read-out: Cat. G Activity [% Control]; for inhibition at 10 µM / inhibition of cathepsin G: at 10 µM; for IC50: read-out: Cat. G IC50 (converted)
T2 construct: purified cathepsin G (0.2 µg) from human neutrophils; purchased Calbiochem; host or cells: human neutrophils (natural source)
T2 sequence (P08311 21-244 limits assumed): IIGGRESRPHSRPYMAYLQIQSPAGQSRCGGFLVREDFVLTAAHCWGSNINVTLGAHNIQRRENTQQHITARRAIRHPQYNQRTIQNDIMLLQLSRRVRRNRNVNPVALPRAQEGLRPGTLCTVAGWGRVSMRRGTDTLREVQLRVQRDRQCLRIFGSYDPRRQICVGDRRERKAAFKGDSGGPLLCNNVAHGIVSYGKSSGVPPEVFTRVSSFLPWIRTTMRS
Description: Commercially available purified cathepsin G (0.2 µg) from human neutrophils (Calbiochem, La Jolla, CA, USA) was mixed with test compounds or DMSO (vehicle control) in 200 µL 0.1 M HEPES pH 7.4, 0.5 M NaCl, and 10% DMSO in a 96-well plate (Greiner Bio-One, Frickenhausen, Germany) and pre-incubated for 20 min at 25 °C. Then, N-Suc–Ala–Ala–Pro–Phe–pNA (Suc–AAPF–pNA) (1 mM) as substrate for cathespin G was added, and the absorbance was measured at 410 nm at 25 °C using a Victor^2 plate reader (PerkinElmer, Waltham, MA, USA).

5-LO [2] = molecular target: T1, 5-LO; assay: 5-LO product formation in intact human neutrophils stimulated with A23187 (cell-based); design: 5-LO product formation in intact human neutrophils; endogenous in cells; host or cells: freshly isolated human peripheral blood neutrophils; conditions: for IC50: human neutrophils stimulated with A23187; for remaining activity at 10 µM: read-out: 5-LO Activity [% Control] cell-based
Description: Neutrophils were isolated from peripheral blood (University Hospital Tübingen, Germany), collected from fasted healthy adult donors that were informed about the aim of the study and gave written consent. Leukocyte concentrates were obtained by centrifugation (4000× g, 20 min, 20 °C) of heparinized blood preparation, and neutrophils were immediately isolated as described before. Briefly, leukocyte concentrates were subjected to dextran sedimentation and centrifuged on lymphocyte separation medium (LSM 1077, PAA, Coelbe, Germany). For isolation of pelleted neutrophils, remaining erythrocytes were removed by hypotonic lysis, washed twice with ice-cold phosphate-buffered saline (PBS) and finally resuspended in PBS buffer containing 0.1% glucose and CaCl2 (1 mM) (PGC buffer).
5-LO product formation in intact human neutrophils was performed using 5 × 10^6 freshly isolated cells that were resuspended in 1 mL PGC buffer. Cells were pre-incubated with the test compounds or vehicle (0.1% DMSO) at 37 °C for 15 min prior to stimulation with 2.5 µM Ca^2+-ionophore A23187 for 10 min (37 °C). 5-LO product formation was stopped by addition of one volume of ice-cold methanol, samples were subjected to solid phase extraction after addition of 200 ng PGB1 as internal standard, and 5-LO products (LTB4, its trans-isomers and 5-HETE) were analyzed by RP-HPLC as described above.

[3] = residual activity at 10 µM, cell-free, mean ± SEM, 3–4 experiments
[4] = residual activity at 10 µM, human neutrophils, A23187, mean ± SEM, 3–4 experiments
[5] = cell-free, purified cathepsin G from human neutrophils

Row | Structure (SMILES) | remaining activity at 10 µM (5-LO [1]) [%] | remaining activity at 10 µM (cathepsin G; [3]) [%] | IC50 (5-LO [2]) [µM] | remaining activity at 10 µM (5-LO [2]; [4]) [%] | inhibition at 10 µM (5-LO [1]; at 10 µM) [%] | IC50 (cathepsin G; [5]) [µM] | 5-LO Activity [% Control] cell-free (5-LO [1]) | further results
1 | C=C(C)[C@@H]1CC[C@]2(CO)CC[C@]3(C)[C@H](CC[C@@H]4[C@@]5(C)CC[C@@H](O)[C@](C)(C(=O)O)[C@@H]5CC[C@]43C)[C@@H]12 [compound 11] | 52.7 ± 7.1 | 68.1 ± 6.5 | 4.6 | 24 ± 7.2 | – | – | – | IC50 (5-LO [1]): 10 µM; inhibition at 10 µM (cathepsin G): 27 to 44%
2 | C=C(C)[C@@H]1CC[C@]2(CO)CC[C@]3(C)[C@H](CC[C@@H]4[C@@]5(C)CC[C@@H](OC(C)=O)[C@](C)(C(=O)O)[C@@H]5CC[C@]43C)[C@@H]12 [compound 12] | 41.8 ± 3.4 | 87.2 ± 2.5 | 5.1 | 28.4 ± 11.1 | – | – | – | IC50 (5-LO [1]): 8.3 µM; inhibition of cathepsin G (cathepsin G): failed to markedly inhibit cathepsin G
3 | C[C@H]1[C@H](C)CC[C@]2(C)CC[C@]3(C)C(=C[C@@H](O)[C@@H]4[C@@]5(C)CC[C@@H](O)[C@](C)(C(=O)O)[C@@H]5CC[C@]43C)[C@H]12 [compound 18, 11α-Hydroxy-β-boswellic acid] | 72.8 ± 7.1 | 62.9 ± 6.6 | 2.8 | 18.3 ± 2.7 | < 25 | – | – | –
4 | CC(=O)O[C@@H]1CC[C@@]2(C)[C@@H](CC[C@]3(C)[C@@H]2CC=C2[C@@H]4[C@@H](C)[C@H](C)CC[C@]4(C)CC[C@]23C)[C@@]1(C)C(=O)O [compound 4, 3-O-acteyl-β-BA] | 73.5 ± 13.3 | 28.1 ± 4.9 | – | – | 21 to 26 | 2 | – | 5-LO Activity [% Control] cell-based (5-LO [2]; [4]): n.i.
5 | C[C@H]1[C@H](C)CC[C@]2(C)CC[C@]3(C)C(=CC[C@@H]4[C@@]5(C)CC[C@@H](OC(=O)CCCC(=O)O)[C@](C)(C(=O)O)[C@@H]5CC[C@]43C)[C@H]12 [compound 24, 3-O-Glutaroyl-β-boswellic acid] | – | 24.5 ± 1.7 | – | 65.3 ± 8 | – | 3.6 | n.i. | –
6 | C[C@H]1[C@H](C)CC[C@]2(C)CC[C@]3(C)C(=CC[C@@H]4[C@@]5(C)CC[C@@H](O)[C@](C)(C(=O)O)[C@@H]5CC[C@]43C)[C@H]12 [compound 3, β-BA] | 78.7 ± 12.6 | 27.7 ± 1.8 | – | 53 ± 7.6 | 21 to 26 | 0.5 | – | Cat. G IC50 (cathepsin G; [5]): submicromolar; inhibition at 10 µM (5-LO [2]; at 10 µM, human neutrophils, read-out: inhibition of 5-LO activity in intact cells): 47%
7 | CC(=O)O[C@@H]1CC[C@]2(C)C3=C(CC[C@H]2C1(C)C)[C@@]1(C)CC[C@@H]([C@H](CCC=C(C)C)C(=O)O)[C@]1(C)CC3 [compound 17] | 75.6 ± 3 | 66.7 ± 4.5 | – | 75.5 ± 2.1 | – | – | – | inhibition at 10 µM (cathepsin G): 27 to 44%
8 | C[C@H]1[C@H](C)CC[C@]2(C)CC[C@]3(C)C(=CC[C@@H]4[C@@]5(C)CC[C@@H](OC(=O)C(=O)O)[C@](C)(C(=O)O)[C@@H]5CC[C@]43C)[C@H]12 [compound 20, 3-O-Oxaloyl-β-boswellic acid] | – | 38.1 ± 6.4 | – | 77.3 ± 5.7 | – | 4.7 | n.i. | –
9 | C[C@H]1[C@H](C)CC[C@]2(C)CC[C@]3(C)C(=CC(=O)[C@@H]4[C@@]5(C)CC[C@@H](OC(=O)C(=O)O)[C@](C)(C(=O)O)[C@@H]5CC[C@]43C)[C@H]12 [compound 21, 3-O-Oxaloyl-11-keto-β-boswellic acid] | – | – | – | 70.3 ± 6.9 | – | – | n.i. | inhibition of cathepsin G (cathepsin G): not active; Cat. G Activity [% Control] (cathepsin G; [3]): n.i.
10 | C=C(C)[C@@H]1CC[C@]2(C)[C@H](CC=C3[C@@H]4[C@@H](C)[C@H](C)CC[C@]4(C)CC[C@]32C)[C@@]1(C)CCC(=O)O [compound 5] | – | 69.8 ± 8 | – | 74.5 ± 3.7 | – | – | n.i. | inhibition of 5-LO activity, cell-free (5-LO [1]; at 10 µM): failed in this respect; inhibition of 5-LO activity in intact cells (5-LO [2]; at 10 µM, human neutrophils): hardly active
